System: genes regulated by the Gcn4 transcription factor
Test: Transcript response (DNA microarray) to a titration series of FK506, genes of the Gcn4 geneset
Format: cell-based, Saccharomyces cerevisiae
Protocol: Yeast (Saccharomyces cerevisiae, Strain YPH499, see, Sikorski and Hieter, 1989, A system of shuttle vectors and yeast host strains designated for efficient manipulation of DNA in Saccharomyces cerevisiae, Genetics 122:19-27) cells were grown in YAPD at 30° C. to an OD600 of 1.0 (±0.2), and total RNA prepared by breaking cells in phenol/chloroform and 0.1% SDS by standard procedures (Ausubel et al., 1995, Current Protocols in Molecular Biology, Greene Publishing and Wiley-Interscience, New York, Ch. 13). Poly(A)^+ RNA was selected by affinity chromatography on oligo-dT cellulose (New England Biolabs) essentially as described in Sambrook et al. (Molecular Cloning—A Laboratory Manual (2nd Ed.), Vol. 1, Cold Spring Harbor Laboratory, Cold Spring Harbor, N.Y., 1989). First strand cDNA synthesis was carried out with 2 μg poly(A)^+ RNA and SuperScript™ II reverse transcriptase (Gibco-BRL) according to the manufacturer's instructions with the following modifications. Deoxyribonucleotides were present at the following concentrations: dA, dG, and dC at 500 μM each, dT at 100 μM and either Cy3-dUTP or Cy5-dUTP (Amersham) at 100 μM. cDNA synthesis reactions were carried out at 42-44° C. for 90 minutes, after which RNA was degraded by the addition of 2 units of RNAse H, and the cDNA products were purified by two successive rounds of centrifugation dialysis using MICROCON-30 microconcentrators (Amicon) according to the manufacturer's recommendations.
Double-stranded DNA polynucleotides corresponding in sequence to each ORF in the S. cerevisiae genome encoding a polypeptide greater than 99 amino acids (based on the published yeast genomic sequence, e.g., Goffeau et al., 1996, Science 274:546-567) are made by polymerase chain reaction (PCR) amplification of yeast genomic DNA. Two PCR primers are chosen internal to each of the ORFs according to two criteria: (i) the amplified fragments are 300-800 bp and (ii) none of the fragments have a section of more than 10 consecutive nucleotides of sequence in common. Computer programs are used to aid in the design of the PCR primers. Amplification is carried out in 96 well microtitre plates. The resulting DNA fragments are printed onto glass microscope slides using the method of Shalon et al., 1996, Genome Research 6:639-645.
Fluorescently-labeled cDNAs (2-6 μg) are resuspended in 4×SSC plus 1 μg/μl tRNA as carrier and filtered using […] filters (Millipore, Bedford, Mass.). SDS is added to 0.3%, prior to heating to 100° C. for 2 minutes. Probes are cooled and immediately hybridized to the microarrays produced as described in Example 6.2, for 4 hours at 65° C. Non-hybridized probe is removed by washing in 1×SSC plus 0.1% SDS at ambient temperature for 1-2 minutes. Microarrays are scanned with a fluorescence laser-scanning device as previously described (Schena et al., 1995, Science 270:467-470; Schena et al., 1995, Proc. Natl. Acad. Sci. USA 93:[…]) and the results (including the positions of perturbations) are recorded.
Geneset number 3 in the clustering analysis result of FIG. 6 involves genes regulated by the Gcn4 transcription factor. This was verified via the literature and via multiple sequence alignment analysis of the regulatory regions 5′ to the individual genes (Stormo and Hartzell, 1989, Identifying protein binding sites from unaligned DNA fragments, Proc Natl Acad Sci 86:1183-1187; Hertz and Stormo, 1995, Identification of consensus patterns in unaligned DNA and protein sequences: a large-deviation statistical basis for penalizing gaps, Proc of 3rd Intl Conf on Bioinformatics and Genome Research, Lim and Cantor, eds., World Scientific Publishing Co., Ltd. Singapore, pp. 201-216). […] These 20 were used to define a geneset. Response profiles to a titration series of the drug FK506, which is known to hit this pathway at higher concentrations, were projected onto this geneset. […]

Structure (SMILES): C=CC[C@@H]1/C=C(\C)C[C@H](C)C[C@H](OC)[C@H]2O[C@@](O)(C(=O)C(=O)N3CCCC[C@H]3C(=O)O[C@H](/C(C)=C/[C@@H]3CC[C@@H](O)[C@H](OC)C3)[C@H](C)[C@@H](O)CC1=O)[C@H](C)C[C@@H]2OC [FK506]
- Geneset Average response (projected response of the 20-gene Gcn4 geneset) (FK506 0.1 μg/ml): 0.1728 standard deviations of Log10(Expression Ratio)
- Response of gene ARG1 (FK506 0.1 μg/ml): 0.2083 standard deviations of Log10(Expression Ratio)
- Response of gene ARG4 (FK506 0.1 μg/ml): 0.3585 standard deviations of Log10(Expression Ratio)
- Response of gene ARG5,6 (FK506 0.1 μg/ml): 0.1162 standard deviations of Log10(Expression Ratio)
- Response of gene ECM13 (FK506 0.1 μg/ml): 0.1269 standard deviations of Log10(Expression Ratio)
- Response of gene HIS3 (FK506 0.1 μg/ml): −0.3719 standard deviations of Log10(Expression Ratio)
- Response of gene HIS5 (FK506 0.1 μg/ml): 0.0292 standard deviations of Log10(Expression Ratio)
- Response of gene MET16 (FK506 0.1 μg/ml): 0.0225 standard deviations of Log10(Expression Ratio)
- Response of gene NCE3 (FK506 0.1 μg/ml): 0.0371 standard deviations of Log10(Expression Ratio)
- Response of gene PCL5 (FK506 0.1 μg/ml): 0.1418 standard deviations of Log10(Expression Ratio)
- Response of gene SNO1 (FK506 0.1 μg/ml): −0.2899 standard deviations of Log10(Expression Ratio)
- Response of gene SNZ1 (FK506 0.1 μg/ml): −0.7223 standard deviations of Log10(Expression Ratio)
- Response of gene SSU1 (FK506 0.1 μg/ml): 0.6257 standard deviations of Log10(Expression Ratio)
- Response of gene YBR047W (FK506 0.1 μg/ml): 0.0781 standard deviations of Log10(Expression Ratio)
- Response of gene YER024W (FK506 0.1 μg/ml): 0.1985 standard deviations of Log10(Expression Ratio)
- Response of gene YGL117W (FK506 0.1 μg/ml): 0.6309 standard deviations of Log10(Expression Ratio)
- Response of gene YGL184C (FK506 0.1 μg/ml): 0.0654 standard deviations of Log10(Expression Ratio)
- Response of gene YHR029C (FK506 0.1 μg/ml): −0.031 standard deviations of Log10(Expression Ratio)
- Response of gene YMR195W (FK506 0.1 μg/ml): 0.7615 standard deviations of Log10(Expression Ratio)
- Geneset Average response (projected response of the 20-gene Gcn4 geneset) (FK506 0.31 μg/ml): 0.6753 standard deviations of Log10(Expression Ratio)
- Response of gene ARG1 (FK506 0.31 μg/ml): 0.3436 standard deviations of Log10(Expression Ratio)
- Response of gene ARG4 (FK506 0.31 μg/ml): 0.3508 standard deviations of Log10(Expression Ratio)
- Response of gene ARG5,6 (FK506 0.31 μg/ml): 0.2722 standard deviations of Log10(Expression Ratio)
- Response of gene ARO3 (FK506 0.31 μg/ml): −0.1371 standard deviations of Log10(Expression Ratio)
- Response of gene ECM13 (FK506 0.31 μg/ml): 0.2197 standard deviations of Log10(Expression Ratio)
- Response of gene HIS3 (FK506 0.31 μg/ml): 0.1282 standard deviations of Log10(Expression Ratio)
- Response of gene HIS5 (FK506 0.31 μg/ml): 0.2175 standard deviations of Log10(Expression Ratio)
- Response of gene MET16 (FK506 0.31 μg/ml): −0.6269 standard deviations of Log10(Expression Ratio)
- Response of gene NCE3 (FK506 0.31 μg/ml): 0.1668 standard deviations of Log10(Expression Ratio)
- Response of gene PCL5 (FK506 0.31 μg/ml): 0.2767 standard deviations of Log10(Expression Ratio)
- Response of gene SNO1 (FK506 0.31 μg/ml): 0.0244 standard deviations of Log10(Expression Ratio)
- Response of gene SNZ1 (FK506 0.31 μg/ml): 0.0244 standard deviations of Log10(Expression Ratio)
- Response of gene SSU1 (FK506 0.31 μg/ml): 0.6655 standard deviations of Log10(Expression Ratio)
- Response of gene YBR047W (FK506 0.31 μg/ml): 0.1553 standard deviations of Log10(Expression Ratio)
- Response of gene YER024W (FK506 0.31 μg/ml): −0.0419 standard deviations of Log10(Expression Ratio)
- Response of gene YGL117W (FK506 0.31 μg/ml): 0.6768 standard deviations of Log10(Expression Ratio)
- Response of gene YGL184C (FK506 0.31 μg/ml): −0.0207 standard deviations of Log10(Expression Ratio)
- Response of gene YHR029C (FK506 0.31 μg/ml): 0.2438 standard deviations of Log10(Expression Ratio)
- Response of gene YMR195W (FK506 0.31 μg/ml): 0.3323 standard deviations of Log10(Expression Ratio)
- 'Geneset' response, significance (FK506 1.6 μg/ml): > 3 sigrna
- Geneset Average response (projected response of the 20-gene Gcn4 geneset) (FK506 1.6 μg/ml): 3.3045 standard deviations of Log10(Expression Ratio)
- Response of gene ARG1 (FK506 1.6 μg/ml): 3.1765 standard deviations of Log10(Expression Ratio)
- Response of gene ARG4 (FK506 1.6 μg/ml): 1.6674 standard deviations of Log10(Expression Ratio)
- Response of gene ARG5,6 (FK506 1.6 μg/ml): 1.1844 standard deviations of Log10(Expression Ratio)
- Response of gene ARO3 (FK506 1.6 μg/ml): 0.2684 standard deviations of Log10(Expression Ratio)
- Response of gene CPA2 (FK506 1.6 μg/ml): 1.2429 standard deviations of Log10(Expression Ratio)
- Response of gene ECM13 (FK506 1.6 μg/ml): 0.5226 standard deviations of Log10(Expression Ratio)
- Response of gene HIS3 (FK506 1.6 μg/ml): 0.71 standard deviations of Log10(Expression Ratio)
- Response of gene HIS5 (FK506 1.6 μg/ml): 0.9802 standard deviations of Log10(Expression Ratio)
- Response of gene MET16 (FK506 1.6 μg/ml): −0.1885 standard deviations of Log10(Expression Ratio)
- Response of gene NCE3 (FK506 1.6 μg/ml): 1.2896 standard deviations of Log10(Expression Ratio)
- Response of gene PCL5 (FK506 1.6 μg/ml): 0.4127 standard deviations of Log10(Expression Ratio)
- Response of gene SNO1 (FK506 1.6 μg/ml): −0.4772 standard deviations of Log10(Expression Ratio)
- Response of gene SNZ1 (FK506 1.6 μg/ml): −0.4772 standard deviations of Log10(Expression Ratio)
- Response of gene SSU1 (FK506 1.6 μg/ml): 0.2883 standard deviations of Log10(Expression Ratio)
- Response of gene YBR047W (FK506 1.6 μg/ml): 0.2806 standard deviations of Log10(Expression Ratio)
- Response of gene YER024W (FK506 1.6 μg/ml): 0.4868 standard deviations of Log10(Expression Ratio)
- Response of gene YGL117W (FK506 1.6 μg/ml): 1.6276 standard deviations of Log10(Expression Ratio)
- Response of gene YGL184C (FK506 1.6 μg/ml): −0.0731 standard deviations of Log10(Expression Ratio)
- Response of gene YHR029C (FK506 1.6 μg/ml): 0.4421 standard deviations of Log10(Expression Ratio)
- Response of gene YMR195W (FK506 1.6 μg/ml): 1.6021 standard deviations of Log10(Expression Ratio)
